Assay results from PubChem BioAssay (NCI).
Several values for one entry are separate records, joined by “and”; a condition that tells them apart may be missing. Equal values may be shown once.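 Where inhibition never reached the appropriate level, the endpoint shown equals the highest concentration tested. Otherwise, values were interpolated linearly from a five-concentration, 48-hour dose response in 96-well plates. At the GI50, growth is halved. TGI: concentration producing complete growth inhibition.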

Tests used:
Experiment in all cases: DTP human tumour cell line panel, 48 h
ACHN renal = system: ACHN renal
MALME-3M melanoma = system: MALME-3M melanoma
HT29 colon = system: HT29 colon
CCRF-CEM leukemia = system: CCRF-CEM leukemia
MCF7 breast = system: MCF7 breast
K-562 leukemia = system: K-562 leukemia
CAKI-1 renal = system: CAKI-1 renal
MOLT-4 leukemia = system: MOLT-4 leukemia
TK-10 renal = system: TK-10 renal
M14 melanoma = system: M14 melanoma

SMILES	TGI (ACHN renal)	TGI (MALME-3M melanoma)	TGI (HT29 colon)	TGI (CCRF-CEM leukemia)	TGI (MCF7 breast)	TGI (K-562 leukemia)	TGI (CAKI-1 renal)	TGI (MOLT-4 leukemia)	TGI (TK-10 renal)	TGI (M14 melanoma)	GI50 (ACHN renal)	GI50 (MALME-3M melanoma)	GI50 (HT29 colon)	GI50 (CCRF-CEM leukemia)	GI50 (MCF7 breast)	GI50 (K-562 leukemia)	GI50 (CAKI-1 renal)	GI50 (MOLT-4 leukemia)	GI50 (TK-10 renal)	GI50 (M14 melanoma)
COc1cc([N+](=O)[O-])c(S(=O)(=O)O)cc1-[n+]1nc(C(=O)Nc2ccccc2)nn1-c1ccc([N+](=O)[O-])c(S(=O)(=O)[O-])c1	> 100 µM	> 100 µM	> 100 µM	> 100 µM	> 100 µM	> 100 µM	> 100 µM	> 100 µM	> 100 µM	> 100 µM										
COc1cc(-c2ccc[nH]2)[nH]c1/C=C1\N=C(C)C(C(=O)NC(C)C)=C1C	13.3 µM	16.9 µM	10.8 µM	32 µM	12.3 µM	15.2 µM	10.9 µM	24 µM	9.71 µM	4.4 µM	3.59 µM	4.6 µM	0.508 µM	1.77 µM	2.82 µM	3.53 µM	2.8 µM	2.47 µM	3.1 µM	1.97 µM
CN(C)CC(=O)N1CCc2c([nH]c3ccccc23)C1c1cccnc1 (centres undefined)	> 100 µM	> 100 µM	> 100 µM	> 100 µM	> 100 µM	> 100 µM	> 100 µM	> 100 µM	> 100 µM	> 100 µM		> 100 µM			70.2 µM					
Nc1nc2c(ncn2C2OC(CO)C(O)C2O)c(=O)[nH]1 (centres undefined)	> 100 µM	55.4 µM and 285 µM	> 100 µM and 196 µM	> 100 µM and 217 µM	> 100 µM and 223 µM	> 100 µM and 233 µM	> 100 µM and 214 µM	> 100 µM and 121 µM			> 100 µM	24.1 µM and 176 µM	> 100 µM	13.5 µM	> 100 µM	> 100 µM	55.5 µM	35.7 µM		
COc1cc2c(cc1OC)C(Sc1ccc(Cl)cc1)c1c(nc(N)c(C#N)c1N)O2 (centres undefined)	2.95 µM	3.1 µM	4.12 µM	2.63 µM	2.91 µM	8.28 µM		4.89 µM	2.75 µM	3.1 µM	1.59 µM	1.49 µM	1.88 µM	0.311 µM	0.564 µM	0.791 µM		0.917 µM	1.43 µM	1.63 µM
O=C(/C=C/c1ccccn1)c1ccccc1	6.2 µM	35.1 µM	4.3 µM	6.61 µM	8.46 µM	> 100 µM	12.3 µM	27.6 µM	25.6 µM		2.44 µM	13.8 µM	1.99 µM	2.43 µM	2.07 µM	2.53 µM	3.28 µM	3.1 µM	12.8 µM	
